{"source": "patent US20140243239A1", "about": "“MULTIPLEXED KINASE INHIBITOR BEADS AND USES THEREOF” (University of North Carolina at Chapel Hill, priority 2011, published 2014)", "key": {"AKT": {"test_system": "AKT", "assay": "AKT phosphorylation in pancreatic cancer PDX tumors", "type": "in vivo, mice", "conditions": "daily treatment, harvested 4-6 h after last dose", "method": "Kinome reprogramming in PDX model of pancreatic cancer after BKM120 treatment: The kinome response of a pancreatic cancer PDX to BKM120 treatment was evaluated using MIB/MS. […] Kinome reprogramming in PDX models: De-identified tumors from patients are grafted into immunecompromised mice and passaged. All tumors are characterized using microarray and mutational analysis. Hematoxylin & eosin staining of a patient tumor at the time of operation and after several passages over a 1.5 yr period showing similar glandular architecture with surrounding stroma. Variable levels of pERK1/2 and pAKT(S473) was seen across pancreatic cancer PDX. PDX P100422 with moderate levels of pAKT was selected for BKM120 treatment. pAKT expression in BKM120 versus vehicle treated PDX tumor. Mice were treated daily with either vehicle control (n=3) or BKM120 (n=3) and tumors were harvested 4-6 h after the last dose. PDX tumors were treated daily for 28 days. […] The 3 vehicle control and 3 BKM120 treated tumors showing inhibition of pAKT were analyzed using MIB/MS. Activation and repression of the kinome in response to PI3K inhibition in PDX P100422."}, "PDX P100422": {"test_system": "PDX P100422", "assay": "Tumor growth of pancreatic cancer PDX P100422", "type": "in vivo, mice", "source_text": "Kinome reprogramming in PDX models: De-identified tumors from patients are grafted into immunecompromised mice and passaged. All tumors are characterized using microarray and mutational analysis. Hematoxylin & eosin staining of a patient tumor at the time of operation and after several passages over a 1.5 yr period showing similar glandular architecture with surrounding stroma. Variable levels of pERK1/2 and pAKT(S473) was seen across pancreatic cancer PDX. PDX P100422 with moderate levels of pAKT was selected for BKM120 treatment. pAKT expression in BKM120 versus vehicle treated PDX tumor. Mice were treated daily with either vehicle control (n=3) or BKM120 (n=3) and tumors were harvested 4-6 h after the last dose. PDX tumors were treated daily for 28 days. […] The 3 vehicle control and 3 BKM120 treated tumors showing inhibition of pAKT were analyzed using MIB/MS. Activation and repression of the kinome in response to PI3K inhibition in PDX P100422."}, "MEK1": {"test_system": "MEK1", "assay": "MEK1 activation in HPAC pancreatic cancer cells", "type": "cell-based", "method": "Kinome reprogramming in pancreatic cancer—cell type and inhibitor specific. The kinome response to drug in 3 pancreatic cancer cell lines (HPAC, AsPC-1, HPAF-II) was also evaluated using 3 kinase inhibitors that are currently in Phase I/II clinical trials: BKM120 (Novartis), an oral pan-class 1 PI3K inhibitor, […] (Glaxo Smith-Kline), an ATP competitive PI3K/mTOR inhibitor, and GSK1120212, a reversible allosteric inhibitor of MEK1/2 (Glaxo Smith-Kline). The kinome response for GSK2126458 and GSK1120212 was compared using MIB/MS and RTK arrays to determine if kinome reprogramming was inhibitor-specific. […] Thus, kinome reprogramming is target-specific."}, "MEK-ERK pathway": {"test_system": "MEK-ERK pathway", "assay": "Window trial in TNBC patients (LCCC 1122), MIB/MS of tumor biopsies", "type": "in vivo, human", "conditions": "7-day post-treatment versus pre-treatment biopsy, preliminary", "source_text": "Kinome reprogramming in TNBC patients treated with the MEK inhibitor GSK1120212 is being evaluated (LCCC 1122)."}, "MEK": {"test_system": "MEK", "conditions": "Gilmartin et al. 2011; cited from earlier work"}, "BT474 cells": {"test_system": "BT474 cells", "assay": "BT474 luminescent cell viability assay", "type": "cell-based", "conditions": "50 nM lapatinib, 0-72 hours", "experimental": "The different colors represent different time points of (50 nM) lapatinib treatment relative to DMSO control-treated cells. From light to dark, the time points are 4, 24, and 48 hrs of lapatinib treatment."}}, "data": [{"compound": "Nc1cc(C(F)(F)F)c(-c2cc(N3CCOCC3)nc(N3CCOCC3)n2)cn1", "note": "[BKM120]", "values": [{"measurement": "AKT phosphorylation", "setting": "AKT", "result": "inhibited AKT phosphorylation"}, {"measurement": "effectiveness in the PDX model", "setting": "PDX P100422; small sample size", "result": "not clearly effective"}, {"measurement": "number of tumors showing tumor growth inhibition relative to controls", "setting": "PDX P100422; treated daily for 28 days", "result": 4, "unit": "tumors"}]}, {"compound": "CC(=O)Nc1cccc(-n2c(=O)n(C3CC3)c(=O)c3c(Nc4ccc(I)cc4F)n(C)c(=O)c(C)c32)c1", "note": "[GSK1120212]", "values": [{"measurement": "MEK1 activation", "setting": "MEK1", "result": "inhibited MEK1 activation"}, {"measurement": "MEK-ERK pathway in patient tumors", "setting": "MEK-ERK pathway", "result": "effectively inhibited"}, {"measurement": "kinome reprogramming in patient tumors", "setting": "MEK-ERK pathway", "result": "upregulation of MRCKG, FER and DDR1"}, {"measurement": "fold lower affinity of MEK phosphorylated at the activation loop serines than nonphosphorylated MEK", "setting": "MEK", "result": 20, "unit": "fold"}]}, {"compound": "CS(=O)(=O)CCNCc1ccc(-c2ccc3ncnc(Nc4ccc(OCc5cccc(F)c5)c(Cl)c4)c3c2)o1", "note": "[lapatinib]", "values": [{"measurement": "growth of BT474 cells", "setting": "BT474 cells", "result": "growth inhibition"}]}]}
